Several values for one entry are separate records, joined by “and”; a condition that tells them apart may be missing. Equal values may be shown once.
Key:
S. pyogenes strain A666 = assay: Clotting assay, escape of streptococci from clot (cluster 2b type streptokinase); assay type: cell-based; conditions: 60 µg/ml, after 4 h, p < 0.05
Experimental: (§1) To assess whether LA and PA influence the entrapment of bacteria within clots, a 50 ml overnight culture (THY medium) of the S. pyogenes strains AP1 or A666 was centrifuged at 4332 × g for 10 min. […] For clot induction, 100 µl citrate plasma, 100 µl of the respective bacterial suspension and 50 µl thrombin-reagent (Haemochrom Diagnostica) were used. […] Then clots were left untreated (treated with sodium citrate buffer only) or were treated with LA or PA (diluted in sodium citrate buffer). For clots formed with S. pyogenes strain A666, a final concentration of 60 µg/ml was used for both, LA and PA. For those formed with S. pyogenes strain AP1, a final concentration of 30 µg/ml was used. 50 µl of the supernatant of each sample were plated onto blood agar plates in serial dilutions at 0, 2 and 4 h after clot induction and incubated at 37 °C overnight. Colonies were counted the following day to assess the number of bacteria which had escaped the clot. […] Two independent experiments were performed. Standard deviations were calculated accordingly. Citrate plasma was obtained from healthy volunteers who gave their informed consent.

[1] = molecular target: cluster 1 type streptokinase (Streptococcus pyogenes, UniProt P10520); assay type: biochemical, group A streptococcal strain A328; conditions: supernatant-based; for IC50: cluster 1; for fold lower IC50-values than TXA and EACA: cluster 1 type streptokinase
Sequence of cluster 1 type streptokinase (P00747 20-810): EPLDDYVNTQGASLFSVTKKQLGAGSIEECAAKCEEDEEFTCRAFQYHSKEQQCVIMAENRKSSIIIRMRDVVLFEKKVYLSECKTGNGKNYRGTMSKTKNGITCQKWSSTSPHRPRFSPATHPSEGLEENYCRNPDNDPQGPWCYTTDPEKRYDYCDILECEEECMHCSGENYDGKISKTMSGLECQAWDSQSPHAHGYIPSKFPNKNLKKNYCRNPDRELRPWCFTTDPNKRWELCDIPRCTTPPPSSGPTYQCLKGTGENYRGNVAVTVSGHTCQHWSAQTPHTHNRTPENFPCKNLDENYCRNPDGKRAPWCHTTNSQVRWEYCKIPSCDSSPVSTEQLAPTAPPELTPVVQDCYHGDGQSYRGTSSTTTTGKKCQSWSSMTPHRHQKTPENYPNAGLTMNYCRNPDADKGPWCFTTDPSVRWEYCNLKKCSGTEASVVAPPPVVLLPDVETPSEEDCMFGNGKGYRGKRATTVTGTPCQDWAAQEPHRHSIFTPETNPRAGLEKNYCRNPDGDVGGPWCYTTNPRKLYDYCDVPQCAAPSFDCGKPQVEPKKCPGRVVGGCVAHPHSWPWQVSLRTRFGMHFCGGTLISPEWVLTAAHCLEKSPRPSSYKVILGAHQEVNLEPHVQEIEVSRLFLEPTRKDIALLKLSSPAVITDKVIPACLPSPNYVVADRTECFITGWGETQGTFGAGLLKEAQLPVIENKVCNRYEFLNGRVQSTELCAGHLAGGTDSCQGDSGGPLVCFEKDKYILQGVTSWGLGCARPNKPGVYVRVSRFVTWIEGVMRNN
Sequence of cluster 1 type streptokinase (P10520 27-440): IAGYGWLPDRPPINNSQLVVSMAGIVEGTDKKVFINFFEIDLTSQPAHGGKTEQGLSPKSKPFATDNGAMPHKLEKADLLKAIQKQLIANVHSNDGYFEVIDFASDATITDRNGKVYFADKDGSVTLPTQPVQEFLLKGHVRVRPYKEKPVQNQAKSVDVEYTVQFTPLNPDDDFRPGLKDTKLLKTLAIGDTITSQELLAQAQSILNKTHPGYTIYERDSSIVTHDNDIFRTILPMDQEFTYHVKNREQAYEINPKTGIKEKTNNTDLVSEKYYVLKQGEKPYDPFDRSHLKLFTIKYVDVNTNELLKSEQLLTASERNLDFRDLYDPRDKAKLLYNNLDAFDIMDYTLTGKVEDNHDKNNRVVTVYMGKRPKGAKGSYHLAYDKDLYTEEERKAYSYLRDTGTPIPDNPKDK
Experimental: An overnight culture of the strain A328 (cluster 1 type) or A614 (cluster 2a type) was diluted 1:10 in pre-warmed THY medium and grown to an OD600 of around 0.5 at 37 °C. […] The pellet was resuspended in Tris-HCl buffer (50 mM Tris pH 7.5). Then inhibitory compounds (LA, PA, oleic, myristic, stearic, palmitic, arachidonic, arachidic, linolenic acid, TXA or EACA) were added. Stocks of TXA and EACA were prepared in PBS. Stocks of LA and PA were prepared in methanol and then diluted in PBS. Stocks of arachidic, oleic, arachidonic, myristic, palmitic, stearic and linolenic acid were prepared in 60% DMSO/PBS and then diluted in PBS. The untreated control received the same amount of PBS as in case of TXA and EACA as control or the same amount of methanol diluted in PBS as in case of LA and PA, respectively, or the same amount of DMSO diluted in PBS as in case of the other commercially available fatty acids. […] The assay was run at 37 °C. The absorption was measured at the beginning of the reaction and then every hour at 405 nm after 3 sec of shaking on a Tecan Sunrise ELISAReader using Magellan software. Each experiment was repeated three times. IC50 values were calculated using Microsoft® Excel software.

S. pyogenes strain AP1 [2] = assay: Clotting assay, escape of streptococci from clot (cluster 2a type streptokinase); assay type: cell-based; conditions: 30 µg/ml, after 4 h, p < 0.05
Experimental: as §1

staphylokinase = molecular target: T1, staphylokinase (Staphylococcus aureus, UniProt P68801); assay: Plasminogen assay with staphylokinase as activator of plasminogen; assay type: biochemical; conditions: staphylokinase 2 µg/ml; compared to untreated control
T1 construct: purchased Cedarlane Labs
T1 sequence (P68801 28-163): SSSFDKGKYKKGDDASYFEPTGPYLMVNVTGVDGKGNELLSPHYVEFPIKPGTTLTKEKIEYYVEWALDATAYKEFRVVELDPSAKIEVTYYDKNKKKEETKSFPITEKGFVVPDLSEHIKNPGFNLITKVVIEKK
Experimental: Supernatant of an overnight culture of the GAS strain A614 was used as this strain secretes a cluster 2a type streptokinase. 75 µl of the culture supernatant was added to the wells of a 96well plate followed by 69 µl PBS, 5 µl S-2251 (10 mM stock solution, chromogenic substrate for the detection of plasmin, Chromogenix) and 1 µl plasminogen (1 mg/ml stock solution, Biopur or Sigma). 1 µl of each myxobacterial extract or each myxobacterial compound (dissolved in methanol, 1 mM) was added to test possible inhibition of plasminogen activation. The assay was run at 37 °C. The absorption was measured at the beginning of the reaction and then every hour at 405 nm after 3 sec of shaking on a Tecan Sunrise ELISA Reader using Magellan software. The reaction was finished when untreated samples had reached an OD405nm of about 1.
The assay was conducted as described above using staphylokinase (Cedarlane Labs) as an activator of plasminogen (staphylokinase final concentration 2 µg/ml per well in 75 µl of PBS. Stocks of LA and PA were prepared in methanol and then diluted in PBS. The untreated control received the same amount of methanol diluted in PBS as in case of treatment with PA or LA. Each experiment was repeated three times.

[3] = molecular target: cluster 2a type streptokinase (Streptococcus pyogenes, UniProt A0A288R465); assay: biochemical; assay type: biochemical, group A streptococcal strain A614; conditions: supernatant-based; for IC50 / fold lower concentration for the same range of inhibition as oleic and linolenic acid: cluster 2a; for fold lower IC50-values than TXA and EACA: cluster 2a type streptokinase
S. pyogenes strain AP1 [4] = assay: Invasive humanized plasminogen murine infection model; assay type: in vivo, Humanized Plg transgenic AlbPLG1 mice; conditions: 50 µg s.c. (approx. 2 mg/kg) once on day of infection; for Hazard ratio (Mantel-Haenszel) treated/untreated: 1 × 10^7 cfu AP1 s.c.; for survival time in comparison with the untreated group: p = 0.0021
Experimental: All animal experiments were performed in strict accordance with the guidelines of the “European Convention for the Protection of Vertebrate Animals used for Experimental and other Scientific purposes”, with the “Australian Code of Practice for the Care and Use of Animals for Scientific Purposes” and with the “Guidelines for the Care and Use of Laboratory Animals” (National Health and Medical Research Council, Australia). All experiments conducted in Germany were approved by the ethical board of “Niedersächsisches Landesamt für Verbraucherschutz und Lebensmittelsicherheit”, Oldenburg, Germany (animal ethics no.: 33.9-42502-04-12/1009). All experiments conducted in Australia were approved by the University of Queensland Animal Ethics Committee, Brisbane, Australia (animal ethics no.: SCMB/ 553/12/NHMRC). Humanized Plg transgenic AlbPLG1 mice, heterozygous for the human Plg gene[6], were bred and used in the animal facility at the Helmholtz Centre for Infection Research or at the Australian Infectious Disease Research Centre. An overnight culture of the strain AP1 (in THY medium) was re-inoculated in fresh THY medium and grown until mid-log phase (OD 0.4–0.6). Then the bacteria were centrifuged at 4332 × g for 10 min and washed twice in PBS. They were resuspended in PBS and adjusted to an OD of 1.0. Sex- and age-matched (eight- to sixteen-week-old) groups of C57Bl6/J huPlg positive transgenic mice were infected s.c. with 1 × 10^7 cfu of S. pyogenes strain AP1. Cohorts of 15–16 mice were used (the experiment was performed four times with cohorts of 3–5 mice). The specific inoculum dose was administered in a 100 µl volume. Untreated mice received PBS subcutaneously (s.c.) as a control on the day of infection. Treated mice received either 50 µg of linoleic acid (diluted in PBS) or 50 µg of palmitoleic acid (diluted in PBS) s.c. on the day of infection. During the experiment mice were monitored for locomotion, behavior, appearance and weight. Mice were euthanized when they lost more than 20% of weight or when they reached a score of two for three of the following parameters: locomotion, appearance or behavior (authority regulations). The experiment ended after 7 days or after all mice had died.
Significance was determined by using a two-tailed, paired student’s t-test. Survival data were analyzed using GraphPad Prism7 Software. Significance was determined by using a Mantel-Cox- and a Wilcoxon-Test.

CCCCC/C=C\C/C=C\CCCCCCCC(=O)O [LA, linoleic acid]
GAS escaped from the clot compared to the untreated clot (S. pyogenes strain A666): significantly lower amount of GAS escaped
IC50 [1]: 46.6 µM and 46 µM
fold lower IC50-values than TXA and EACA [1]: 500–1000 fold
GAS escaped from the clot compared to the untreated clot (S. pyogenes strain AP1 [2]): significantly lower amount of GAS escaped
inhibition of staphylokinase-mediated plasminogen activation (staphylokinase): not inhibited
IC50 [3]: 156 µM and 149 µM
fold lower concentration for the same range of inhibition as oleic and linolenic acid [3]: 3–4 fold
fold lower IC50-values than TXA and EACA [3]: 500–1000 fold
Hazard ratio (Mantel-Haenszel) treated/untreated (S. pyogenes strain AP1 [4]): 0.1429
survival time in comparison with the untreated group (S. pyogenes strain AP1 [4]): significantly extended the survival time

CCCCCC/C=C\CCCCCCCC(=O)O [PA, palmitoleic acid]
GAS escaped from the clot compared to the untreated clot (S. pyogenes strain A666): significantly lower amount of GAS escaped
IC50 [1]: 40.9 µM
fold lower IC50-values than TXA and EACA [1]: 500–1000 fold
GAS escaped from the clot compared to the untreated clot (S. pyogenes strain AP1 [2]): significantly lower amount of GAS escaped
inhibition of staphylokinase-mediated plasminogen activation (staphylokinase): not inhibited
IC50 [3]: 91.6 µM and 105 µM
fold lower concentration for the same range of inhibition as oleic and linolenic acid [3]: 3–4 fold
fold lower IC50-values than TXA and EACA [3]: 500–1000 fold
Hazard ratio (Mantel-Haenszel) treated/untreated (S. pyogenes strain AP1 [4]): 0.1429
survival time in comparison with the untreated group (S. pyogenes strain AP1 [4]): significantly extended the survival time
